Residue numbers refer to the chain shown, from its start. Numbers in names are those of the source. Read-outs that look alike come from different tables or passages of the source. Each block holds one molecule with its values, some of them ahead of it.
Tests used:
[1] = system: OCI-LY10^E140X; assay: Growth inhibition assay (CellTiter Glo), OCI-Ly10 cells expressing BCL10 E140X; assay type: cell-based; settings: Homo sapiens, 96 h
Description: (§1) DLBCL cell lines were cultured in exponential condition and the cell growth was determined by CellTiter Glo (Promega). 3000-5000 cells were seeded and cultured in each well of 384 well plate for 96 h and treated with compounds every 48 h. Luminescence was read at the endpoint with the Synergy NEO microplate reader (BioTek). The value of compound treated cells was normalized to their vehicle treated controls and then used to calculate IC50 in GraphPad Prism (RRID:SCR_002798).
(§2) Given the distinct functional profiles, CARD11 dependencies, and MALT1 activation effects of the BCL10 CARD and truncation mutants, the inventors designed experiments to evaluate whether, and to what extent, these mutant BCL10 proteins might confer BTK inhibitor resistance. Isogenic ABC-DLBCL cells expressing BCL10WT, BCL10^R58Q and BCL10^E140X proteins were treated with escalating doses of three chemically distinct covalent BTK inhibitors: ibrutinib, acalabrutinib, or zanubrutinib. The cellular proliferation rates of the treated cells were measured using an ATP fluorescence assay after 96 hours of drug exposure.
(§3) Isogenic BCL10^WT, BCL10^R58Q and BCL10^E140X ABC-DLBCLs were exposed to increasing concentrations of each of these compounds for 96 hours.

[2] = system: HBL1^WT; assay: Growth inhibition assay (CellTiter Glo), HBL1 cells expressing BCL10 WT; assay type: cell-based; settings: Homo sapiens, 96 h
Description: as §1, §2, §3

[3] = system: HBL1^E140X; assay: Growth inhibition assay (CellTiter Glo), HBL1 cells expressing BCL10 E140X; assay type: cell-based; settings: Homo sapiens, 96 h
Description: as §1, §2, §3

[4] = system: OCI-LY10^WT; assay: Growth inhibition assay (CellTiter Glo), OCI-Ly10 cells expressing BCL10 WT; assay type: cell-based; settings: Homo sapiens, 96 h
Description: as §1, §2, §3

[5] = system: OCI-LY10^R58Q; assay: Growth inhibition assay (CellTiter Glo), OCI-Ly10 cells expressing BCL10 R58Q; assay type: cell-based; settings: Homo sapiens, 96 h
Description: as §1, §2, §3

[6] = system: HBL1^R58Q; assay: Growth inhibition assay (CellTiter Glo), HBL1 cells expressing BCL10 R58Q; assay type: cell-based; settings: Homo sapiens, 96 h
Description: as §1, §2, §3

[7] = system: isogenic ABC-DLBCL cells expressing BCL10^WT, BCL10^R58Q and BCL10^E140X; assay: Growth inhibition of isogenic ABC-DLBCL cells, response described in words; assay type: cell-based, human; settings: 96 hours
Description: as §1, §2, §3

[8] = molecular target: T1, Full length His-tagged MALT1 (human, UniProt Q9UDY8 2-824); assay: negative staining EM of BCL10 filaments incubated with MALT1
T1 construct: mature; also called purified, full length MALT1; FL MALT1; not shown: His tag
T1 sequence (looked up): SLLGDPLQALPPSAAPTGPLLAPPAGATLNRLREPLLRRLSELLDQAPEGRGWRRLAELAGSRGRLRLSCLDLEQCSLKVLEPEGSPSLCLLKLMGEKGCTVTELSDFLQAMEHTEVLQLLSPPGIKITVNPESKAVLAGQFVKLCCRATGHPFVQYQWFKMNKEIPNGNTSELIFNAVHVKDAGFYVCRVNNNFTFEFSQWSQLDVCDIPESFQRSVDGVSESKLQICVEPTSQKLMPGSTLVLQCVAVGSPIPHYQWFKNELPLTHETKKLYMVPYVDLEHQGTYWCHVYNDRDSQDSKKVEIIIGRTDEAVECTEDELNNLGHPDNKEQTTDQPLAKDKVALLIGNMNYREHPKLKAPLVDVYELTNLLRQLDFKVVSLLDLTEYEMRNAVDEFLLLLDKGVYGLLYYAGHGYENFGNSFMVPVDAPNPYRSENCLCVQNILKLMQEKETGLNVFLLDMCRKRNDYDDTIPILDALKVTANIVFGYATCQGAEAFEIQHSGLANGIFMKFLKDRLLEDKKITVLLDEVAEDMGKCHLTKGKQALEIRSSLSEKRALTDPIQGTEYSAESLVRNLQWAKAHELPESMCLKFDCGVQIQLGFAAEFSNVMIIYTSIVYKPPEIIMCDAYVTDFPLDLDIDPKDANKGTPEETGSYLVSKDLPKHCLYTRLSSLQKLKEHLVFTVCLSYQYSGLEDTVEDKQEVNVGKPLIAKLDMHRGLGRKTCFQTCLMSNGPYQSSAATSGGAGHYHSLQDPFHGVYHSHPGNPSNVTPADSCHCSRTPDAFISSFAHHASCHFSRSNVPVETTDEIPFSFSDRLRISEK
Description: This new MALT1 binding domain is deleted from BCL10^E140X. The inventors next explored whether there was any impairment in MALT1 recruitment to BCL10 filaments, by generating BCL10^WT and BCL10^E140X filaments in vitro and incubating them with purified, full length MALT1 followed by negative staining electron microscopy (EM). […] However, this experiment may not provide sufficient resolution to show whether MALT1 distribution on the different BCL10 polymers was altered. Therefore, cryo-EM data were then collected on a Titan Krios microscope operating ats 300 keV and equipped with a Falcon II direct electron detector. The cryo-EM structure of BCL10^E140X filaments in complex with MALT1 was thus determined at 4.3 Å resolution.
Given that this new MALT1 binding domain is deleted from BCL10^E140X we next explored whether there was any impairment in MALT1 recruitment to BCL10 filaments, by generating BCL10^WT and BCL10^E140X filaments in vitro and incubating them with purified, full length MALT1 followed by negative staining EM. […] The structure of the BCL10^E140X filament with MALT1 was highly similar to that of the BCL10^WT filament with MALT1 at 4.9 Å resolution, in which the DDS of MALT1 bind the CARD of BCL10 and decorate the outside of the core CARD filament (FIG. 11G-I).

[9] = molecular target: the molecule itself; assay: confocal fluorescence microscopy of Alexa488-BCL10 filaments 4 h after 3C cleavage of MBP; self-association
Description: To determine the mechanism through which BCL10 mutants might confer a biochemical gain of function, full-length BCL10^WT, BCL10^E140X and BCL10^R58Q fused to a 3C protease-cleavable maltose binding protein (MBP) at the N-terminus to keep the proteins in a monomeric state were expressed and purified (FIG. 9A). The purified proteins were labeled with Alexa488 through cysteine residues in the unstructured C-terminal region. Spontaneous filament formation was then assessed by confocal fluorescence microscopy as a function of BCL10 concentration 4 h after mixing with the 3C protease to remove the MBP tag. […] The kinetics of filament formation by these proteins was imaged at […] concentration, which is above the concentration of polymerization for WT and these mutant BCL10 proteins using time lapse confocal fluorescence microscopy.

[10] = molecular target: T2, BCL10^WT (recombinant, full-length, after 3C cleavage of the MBP tag)
T2 chain: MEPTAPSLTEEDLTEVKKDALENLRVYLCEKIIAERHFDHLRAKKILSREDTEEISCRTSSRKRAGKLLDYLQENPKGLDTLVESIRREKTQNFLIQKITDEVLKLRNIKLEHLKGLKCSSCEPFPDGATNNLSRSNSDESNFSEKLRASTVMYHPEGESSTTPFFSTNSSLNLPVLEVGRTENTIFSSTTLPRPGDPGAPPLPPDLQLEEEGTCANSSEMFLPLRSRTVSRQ

[11] = molecular target: T3, BCL10^R58Q (recombinant, full-length, after 3C cleavage of the MBP tag)
T3 chain: T2 chain with R58Q

[12] = molecular target: T4, BCL10^E140X (recombinant, after 3C cleavage of the MBP tag)
T4 chain: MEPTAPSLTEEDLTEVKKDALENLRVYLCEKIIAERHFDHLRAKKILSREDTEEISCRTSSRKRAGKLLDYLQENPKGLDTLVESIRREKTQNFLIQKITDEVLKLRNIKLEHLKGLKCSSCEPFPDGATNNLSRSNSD

[13] = read-out: IC50, growth inhibition, BTK inhibitors
[14] = read-out: IC50, growth inhibition, MALT1 inhibitors

B1: BCL10^E140X (recombinant, after 3C cleavage of the MBP tag) (other)
chain: T4 chain
modifications: Alexa488 (C5-maleimide) on cysteine residues in the confocal and quenching assays
notes: Range 1-139 from the name E140X; Made as His-MBP-3C site-BCL10; MBP removed by 3C protease; also called E140X filaments; BCL10 (1-140)
binding result [8]: binds | concentration of polymerization [9]: ≤ 100 nM

B2: Full length His-tagged MALT1 (protein)
chain: T1 sequence (looked up)
BCL10 polymerization kinetics by fluorescence quenching (3 µM Alexa488-BCL10, MALT1 at 0, 1.5, 3, 6 and 12 µM) [10]: increasing doses of MALT1 suppressed BCL10^WT and BCL10^R58Q filament formation in a dose dependent manner | BCL10 polymerization kinetics by fluorescence quenching (3 µM Alexa488-BCL10, MALT1 at 0, 1.5, 3, 6 and 12 µM) [11]: increasing doses of MALT1 suppressed BCL10^WT and BCL10^R58Q filament formation in a dose dependent manner | BCL10 polymerization kinetics by fluorescence quenching (3 µM Alexa488-BCL10, MALT1 at 0, 1.5, 3, 6 and 12 µM) [12]: there was little suppression of BCL10^E140X polymerization by MALT1 at any dose

B4: BCL10^R58Q (recombinant, full-length, after 3C cleavage of the MBP tag) (other)
chain: T2 chain with R58Q
modifications: Alexa488 (C5-maleimide) on cysteine residues in the confocal and quenching assays
notes: Made as His-MBP-3C site-BCL10; MBP removed by 3C protease; Forms filaments; also called R58Q filaments
concentration of polymerization [9]: ~250 nM

Now from value to molecule, other results behind:

IC50 [1, 13]: 2.86 ± 0.13 nM | IC50 [4, 13]: 1.74 ± 0.08 nM | IC50 [5, 13]: 1.81 ± 0.33 nM
Molecule: C=CC(=O)N1CCC([C@@H]2CCNc3c(C(N)=O)c(-c4ccc(Oc5ccccc5)cc4)nn32)CC1 [Zanubrutinib]
IC50 [2, 13]: 1.46 ± 0.32 nM | IC50 [3, 13]: 9.31 ± 6.22 nM | IC50 [6, 13]: 1.58 ± 0.06 nM

IC50 [1, 14]: 90 ± 60 nM | IC50 [4, 14]: 70 ± 6 nM | IC50 [5, 14]: 240 ± 50 nM
Molecule: CO[C@H](c1c(NC(=O)Nc2cnc(-n3nccn3)c(Cl)c2)cnc2cc(Cl)nn12)[C@@H](C)OC [MLT-748]
growth response in words ([7]; BCL10^R58Q ABC-DLBCL cells): generally sensitive | growth response in words ([7]; BCL10^WT ABC-DLBCL cells): generally sensitive | IC50 [2, 14]: 1940 ± 200 nM | IC50 [3, 14]: 540 ± 500 nM | IC50 [6, 14]: 3320 ± 1460 nM

IC50 [1, 13]: 5.39 ± 0.77 nM | IC50 [4, 13]: 6.38 ± 0.35 nM | IC50 [5, 13]: 7.69 ± 0.59 nM
Molecule: CC#CC(=O)N1CCC[C@H]1c1nc(-c2ccc(C(=O)Nc3ccccn3)cc2)c2c(N)nccn12 [Acalabrutinib]
IC50 [2, 13]: 4.75 ± 2.11 nM | IC50 [3, 13]: 28.2 ± 21.2 nM | IC50 [6, 13]: 5.54 ± 0.32 nM

binding result [8]: binds
B3: BCL10^WT (recombinant, full-length, after 3C cleavage of the MBP tag) (other)
chain: T2 chain
modifications: Alexa488 (C5-maleimide) on cysteine residues in the confocal and quenching assays
notes: Made as His-MBP-3C site-BCL10 (vector pDB-His-MBP); MBP removed by 3C protease to start filament formation; Forms helical filaments (number of copies not fixed); also called BCL10 FL; BCL10 WT filaments
concentration of polymerization [9]: ~500 nM

— patent publication US20240026461A1, “BCL10 MUTATIONS AS BIOMARKERS FOR TARGETED THERAPY IN B CELL LYMPHOMAS” (priority 2022, published 2024)
